Experimental data taken from patent EP0198522A1, “Heterocyclic herbicides” (SHELL INTERNATIONALE RESEARCH MAATSCHAPPIJ B.V., priority 1985, dated 1986).

Experiments:
Assay type in all cases: in vivo
[1] = tested on: oat, Avena sativa; assay: Herbicidal activity, pre-emergence test (soil spray); details: assessed visually twelve days after spraying, 0-9 scale, 0 = growth as untreated control, 9 = death
Experimental: (§1) To evaluate their herbicidal activity, compounds according to the invention were tested using as representative range of plants: maize, Zea mays (Mz); rice, Oryza sativa (R); barnyard grass, Echinochloa crusgalli (BG); oat, Avena sativa (0); linseed, Linum usitatissisum (L); mustard, Sinapsis alba (M); sugar beet, Beta vulgaris (SB) and soya bean, Glycine max (S).
(§2) The tests fall into two categories, pre-emergence and post-emergence. […] The post-emergence tests involved two types of test, viz., soil drench and foliar spray tests. In the soil drench tests the soil in which the seedling plants of the above species were growing was drenched with a liquid formulation containing a compound of the invention, and in the foliar spray tests the seedling plants were sprayed with such a formulation.
(§3) The soil used in the tests was a prepared horticultural loam.
(§4) These acetone solutions were diluted with water and the resulting formulations applied at dosage levels corresponding to 5 kg or 1 kg of active material per hectare in a volume equivalent to 600 litres per hectare in the soil spray and foliar spray test, and at a dosage of level equivalent to 10 kilograms of active material per hectare in a volume equivalent to approximately 3,000 litres per hectare in the soil drench tests.
(§5) In the pre-emexgence tests untreated sown soil and in the post-emergence tests untreated soil bearing seedling plants were used as controls.
(§6) The herbicidal effects of the test compounds were assessed visually twelve days after spraying the foliage and the soil, and thirteen days after drenching the soil and were recorded on a 0-9 scale. A rating 0 indicates growth as untreated control, a rating 9 indicates death. An increase of 1 unit on the linear scale approximates to a 10% increase in the level of effect.

[2] = tested on: maize, Zea mays; assay: as above; details: assessed visually twelve days after spraying, 0-9 scale, 0 = growth as untreated control, 9 = death
Experimental: as §1, §2, §3, §4, §5, §6

[3] = tested on: sugar beet, Beta vulgaris; assay: as above; details: assessed visually twelve days after spraying, 0-9 scale, 0 = growth as untreated control, 9 = death
Experimental: as §1, §2, §3, §4, §5, §6

[4] = tested on: linseed, Linum usitatissisum; assay: as above; details: assessed visually twelve days after spraying, 0-9 scale, 0 = growth as untreated control, 9 = death
Experimental: as §1, §2, §3, §4, §5, §6

[5] = tested on: soya bean, Glycine max; assay: as above; details: assessed visually twelve days after spraying, 0-9 scale, 0 = growth as untreated control, 9 = death
Experimental: as §1, §2, §3, §4, §5, §6

[6] = tested on: rice, Oryza sativa; assay: as above; details: assessed visually twelve days after spraying, 0-9 scale, 0 = growth as untreated control, 9 = death
Experimental: as §1, §2, §3, §4, §5, §6

[7] = tested on: mustard, Sinapsis alba; assay: as above; details: assessed visually twelve days after spraying, 0-9 scale, 0 = growth as untreated control, 9 = death
Experimental: as §1, §2, §3, §4, §5, §6

[8] = tested on: barnyard grass, Echinochloa crusgalli; assay: as above; details: assessed visually twelve days after spraying, 0-9 scale, 0 = growth as untreated control, 9 = death
Experimental: as §1, §2, §3, §4, §5, §6

[9] = tested on: oat, Avena sativa; assay: Herbicidal activity, post-emergence foliar spray test; details: assessed visually twelve days after spraying, 0-9 scale, 0 = growth as untreated control, 9 = death
Experimental: as §1, §2, §3, §4, §5, §6

[10] = tested on: maize, Zea mays; assay: as above; details: assessed visually twelve days after spraying, 0-9 scale, 0 = growth as untreated control, 9 = death
Experimental: as §1, §2, §3, §4, §5, §6

[11] = tested on: sugar beet, Beta vulgaris; assay: as above; details: assessed visually twelve days after spraying, 0-9 scale, 0 = growth as untreated control, 9 = death
Experimental: as §1, §2, §3, §4, §5, §6

[12] = tested on: linseed, Linum usitatissisum; assay: as above; details: assessed visually twelve days after spraying, 0-9 scale, 0 = growth as untreated control, 9 = death
Experimental: as §1, §2, §3, §4, §5, §6

[13] = tested on: soya bean, Glycine max; assay: as above; details: assessed visually twelve days after spraying, 0-9 scale, 0 = growth as untreated control, 9 = death
Experimental: as §1, §2, §3, §4, §5, §6

[14] = tested on: rice, Oryza sativa; assay: as above; details: assessed visually twelve days after spraying, 0-9 scale, 0 = growth as untreated control, 9 = death
Experimental: as §1, §2, §3, §4, §5, §6

[15] = tested on: mustard, Sinapsis alba; assay: as above; details: assessed visually twelve days after spraying, 0-9 scale, 0 = growth as untreated control, 9 = death
Experimental: as §1, §2, §3, §4, §5, §6

[16] = tested on: barnyard grass, Echinochloa crusgalli; assay: as above; details: assessed visually twelve days after spraying, 0-9 scale, 0 = growth as untreated control, 9 = death
Experimental: as §1, §2, §3, §4, §5, §6

[17] = tested on: oat, Avena sativa; assay: Herbicidal activity, post-emergence soil drench test; details: 10 kg/ha soil drench; assessed visually thirteen days after drenching; 0-9 scale, 0 = growth as untreated control, 9 = death
Experimental: as §1, §2, §3, §4, §5, §6

[18] = tested on: maize, Zea mays; assay: as above; details: 10 kg/ha soil drench; assessed visually thirteen days after drenching; 0-9 scale, 0 = growth as untreated control, 9 = death
Experimental: as §1, §2, §3, §4, §5, §6

[19] = tested on: sugar beet, Beta vulgaris; assay: as above; details: 10 kg/ha soil drench; assessed visually thirteen days after drenching; 0-9 scale, 0 = growth as untreated control, 9 = death
Experimental: as §1, §2, §3, §4, §5, §6

[20] = tested on: linseed, Linum usitatissisum; assay: as above; details: 10 kg/ha soil drench; assessed visually thirteen days after drenching; 0-9 scale, 0 = growth as untreated control, 9 = death
Experimental: as §1, §2, §3, §4, §5, §6

[21] = tested on: soya bean, Glycine max; assay: as above; details: 10 kg/ha soil drench; assessed visually thirteen days after drenching; 0-9 scale, 0 = growth as untreated control, 9 = death
Experimental: as §1, §2, §3, §4, §5, §6

[22] = tested on: rice, Oryza sativa; assay: as above; details: 10 kg/ha soil drench; assessed visually thirteen days after drenching; 0-9 scale, 0 = growth as untreated control, 9 = death
Experimental: as §1, §2, §3, §4, §5, §6

[23] = tested on: mustard, Sinapsis alba; assay: as above; details: 10 kg/ha soil drench; assessed visually thirteen days after drenching; 0-9 scale, 0 = growth as untreated control, 9 = death
Experimental: as §1, §2, §3, §4, §5, §6

[24] = tested on: barnyard grass, Echinochloa crusgalli; assay: as above; details: 10 kg/ha soil drench; assessed visually thirteen days after drenching; 0-9 scale, 0 = growth as untreated control, 9 = death
Experimental: as §1, §2, §3, §4, §5, §6

| SMILES | Pre-emergence O (herbicidal effect rating) ([1]; Dosage 1 kg/ha) | Pre-emergence O (herbicidal effect rating) ([1]; Dosage 5 kg/ha) | Pre-emergence Mz (herbicidal effect rating) ([2]; Dosage 1 kg/ha) | Pre-emergence Mz (herbicidal effect rating) ([2]; Dosage 5 kg/ha) | Pre-emergence SB (herbicidal effect rating) ([3]; Dosage 1 kg/ha) | Pre-emergence SB (herbicidal effect rating) ([3]; Dosage 5 kg/ha) | Pre-emergence L (herbicidal effect rating) ([4]; Dosage 1 kg/ha) | Pre-emergence L (herbicidal effect rating) ([4]; Dosage 5 kg/ha) | Pre-emergence S (herbicidal effect rating) ([5]; Dosage 1 kg/ha) | Pre-emergence S (herbicidal effect rating) ([5]; Dosage 5 kg/ha) | Pre-emergence R (herbicidal effect rating) ([6]; Dosage 1 kg/ha) | Pre-emergence R (herbicidal effect rating) ([6]; Dosage 5 kg/ha) | Pre-emergence M (herbicidal effect rating) ([7]; Dosage 1 kg/ha) | Pre-emergence M (herbicidal effect rating) ([7]; Dosage 5 kg/ha) | Pre-emergence BG (herbicidal effect rating) ([8]; Dosage 1 kg/ha) | Pre-emergence BG (herbicidal effect rating) ([8]; Dosage 5 kg/ha) | Foliar spray O (herbicidal effect rating) ([9]; Dosage 1 kg/ha) | Foliar spray O (herbicidal effect rating) ([9]; Dosage 5 kg/ha) | Foliar spray Mz (herbicidal effect rating) ([10]; Dosage 1 kg/ha) | Foliar spray Mz (herbicidal effect rating) ([10]; Dosage 5 kg/ha) | further results |
| --- | --- | --- | --- | --- | --- | --- | --- | --- | --- | --- | --- | --- | --- | --- | --- | --- | --- | --- | --- | --- | --- |
| COC(=O)c1cc2cc3c(cc2nc1C1=NC(=O)C(C)(C(C)C)N1)OCO3 (centres unmarked) [Example 1, Methyl-2-(5-i.saprapyl-5-methyl-4-oxo-2-imidazolin-2-yl)-[1,3]-dioxolo[4,5-g] quinoline-3-carboxylate] | 5 | 7 | 5 | 7 | 6 | 6 | 6 | 7 | 0 | 0 | 4 | 8 | 4 | 7 | 5 | 8 | 5 | 6 | 5 | 7 | Foliar spray SB (herbicidal effect rating) ([11]; Dosage 1 kg/ha): 6; Foliar spray SB (herbicidal effect rating) ([11]; Dosage 5 kg/ha): 8; Foliar spray L (herbicidal effect rating) ([12]; Dosage 1 kg/ha): 6; Foliar spray L (herbicidal effect rating) ([12]; Dosage 5 kg/ha): 7; Foliar spray S (herbicidal effect rating) ([13]; Dosage 1 kg/ha): 0; Foliar spray S (herbicidal effect rating) ([13]; Dosage 5 kg/ha): 2; Foliar spray R (herbicidal effect rating) ([14]; Dosage 1 kg/ha): 4; Foliar spray R (herbicidal effect rating) ([14]; Dosage 5 kg/ha): 6; Foliar spray M (herbicidal effect rating) ([15]; Dosage 1 kg/ha): 5; Foliar spray M (herbicidal effect rating) ([15]; Dosage 5 kg/ha): 7; Foliar spray BG (herbicidal effect rating) ([16]; Dosage 1 kg/ha): 4; Foliar spray BG (herbicidal effect rating) ([16]; Dosage 5 kg/ha): 7; Soil drench 10/kg/ha O (herbicidal effect rating) [17]: 6; Soil drench 10/kg/ha Mz (herbicidal effect rating) [18]: 6; Soil drench 10/kg/ha SB (herbicidal effect rating) [19]: 7; Soil drench 10/kg/ha L (herbicidal effect rating) [20]: 6; Soil drench 10/kg/ha S (herbicidal effect rating) [21]: 4; Soil drench 10/kg/ha R (herbicidal effect rating) [22]: 7; Soil drench 10/kg/ha M (herbicidal effect rating) [23]: 8; Soil drench 10/kg/ha BG (herbicidal effect rating) [24]: 7 |
| CC(C)C1(C)NC(c2nc3cc4c(cc3cc2C(=O)O)OCO4)=NC1=O (centres unmarked) [Example 2, 2-(5-methyl-5-isopropyl-4-oxo-2-imidazolin-2-yl)-[1,3]-dioxolo[4,5-g] quinoline-3-carboxylic acid] | 7 | 7 | 8 | 8 | 8 | 8 | 8 | 9 | 8 | 8 | 9 | 9 | 7 | 7 | 8 | 8 | 6 | 7 | 6 | 7 | Foliar spray SB (herbicidal effect rating) ([11]; Dosage 1 kg/ha): 7; Foliar spray SB (herbicidal effect rating) ([11]; Dosage 5 kg/ha): 7; Foliar spray L (herbicidal effect rating) ([12]; Dosage 1 kg/ha): 6; Foliar spray L (herbicidal effect rating) ([12]; Dosage 5 kg/ha): 6; Foliar spray S (herbicidal effect rating) ([13]; Dosage 1 kg/ha): 2; Foliar spray S (herbicidal effect rating) ([13]; Dosage 5 kg/ha): 4; Foliar spray R (herbicidal effect rating) ([14]; Dosage 1 kg/ha): 6; Foliar spray R (herbicidal effect rating) ([14]; Dosage 5 kg/ha): 6; Foliar spray M (herbicidal effect rating) ([15]; Dosage 1 kg/ha): 7; Foliar spray M (herbicidal effect rating) ([15]; Dosage 5 kg/ha): 7; Foliar spray BG (herbicidal effect rating) ([16]; Dosage 1 kg/ha): 7; Foliar spray BG (herbicidal effect rating) ([16]; Dosage 5 kg/ha): 7; Soil drench 10/kg/ha O (herbicidal effect rating) [17]: 7; Soil drench 10/kg/ha Mz (herbicidal effect rating) [18]: 7; Soil drench 10/kg/ha SB (herbicidal effect rating) [19]: 8; Soil drench 10/kg/ha L (herbicidal effect rating) [20]: 7; Soil drench 10/kg/ha S (herbicidal effect rating) [21]: 6; Soil drench 10/kg/ha R (herbicidal effect rating) [22]: 7; Soil drench 10/kg/ha M (herbicidal effect rating) [23]: 9; Soil drench 10/kg/ha BG (herbicidal effect rating) [24]: 9 |
